Data: patent publication US20260285850A1, “SUBSTITUTED OXAZOLIDINONES AND IMIDAZOLINONES AS HERBICIDES” (FMC CORPORATION, priority 2023, published 2026)

Legend:
Assay type in all cases: in vivo
[1] = system: barnyardgrass (Echinochloa crus-galli); experiment: Test A preemergence soil spray, visual injury rating 0-100; conditions: 10 days; for Barnyardgrass plant response rating: 16 g ai/ha, 0 to 100 scale
Summary of the method: (§1)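 Visual injury, scored 0-100 (100 = complete control) against untreated plants, 10 days after greenhouse treatment. Test chemicals in surfactant-containing non-phytotoxic solvent were applied in loam soil and sand, as a preemergence soil spray on seeds or postemergence to plants at the one- to two-leaf stage.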

[2] = system: blackgrass (Alopecurus myosuroides); experiment: as above; conditions: 10 days; for Blackgrass plant response rating: 16 g ai/ha, 0 to 100 scale
Summary of the method: as §1

corn (Zea mays) [3] = experiment: as above; conditions: 10 days; for Corn plant response rating: 16 g ai/ha, 0 to 100 scale
Summary of the method: as §1

[4] = system: green foxtail (Setaria viridis); experiment: as above; conditions: 10 days; for Foxtail, Green plant response rating: 16 g ai/ha, 0 to 100 scale
Summary of the method: as §1

kochia (Bassia scoparia) [5] = experiment: as above; conditions: 10 days; for Kochia plant response rating: 16 g ai/ha, 0 to 100 scale
Summary of the method: as §1

[6] = system: oat, wild (wild oat, Avena fatua); experiment: as above; conditions: 10 days; for Oat, Wild plant response rating: 16 g ai/ha, 0 to 100 scale
Summary of the method: as §1

[7] = system: palmer (palmer amaranth, palmer pigweed, Amaranthus palmeri); experiment: as above; conditions: 10 days; for Pigweed, Palmer plant response rating: 16 g ai/ha, 0 to 100 scale
Summary of the method: as §1

[8] = system: ragweed (common ragweed, Ambrosia artemisiifolia); experiment: as above; conditions: 10 days; for Ragweed plant response rating: 16 g ai/ha, 0 to 100 scale
Summary of the method: as §1

[9] = system: ryegrass, Italian (italian ryegrass, Lolium multiflorum); experiment: as above; conditions: 10 days; for Ryegrass, Italian plant response rating: 16 g ai/ha, 0 to 100 scale
Summary of the method: as §1

soybean (Glycine max) [10] = experiment: as above; conditions: 10 days; for Soybean plant response rating: 16 g ai/ha, 0 to 100 scale
Summary of the method: as §1

[11] = system: wheat (Triticum aestivum); experiment: as above; conditions: 10 days; for Wheat plant response rating: 16 g ai/ha, 0 to 100 scale
Summary of the method: as §1

[12] = system: barnyardgrass (Echinochloa crus-galli); experiment: Test A postemergence application, visual injury rating 0-100; conditions: for Barnyardgrass plant response rating (0 to 100 scale): Postemergence, 16 g ai/ha, greenhouse 10 days, 0 no effect, 100 complete control
Summary of the method: as §1

[13] = system: blackgrass (Alopecurus myosuroides); experiment: as above; conditions: for Blackgrass plant response rating (0 to 100 scale): Postemergence, 16 g ai/ha, greenhouse 10 days, 0 no effect, 100 complete control
Summary of the method: as §1

corn (Zea mays) [14] = experiment: as above; conditions: for Corn plant response rating (0 to 100 scale): Postemergence, 16 g ai/ha, greenhouse 10 days, 0 no effect, 100 complete control
Summary of the method: as §1

[15] = system: galium (catchweed bedstraw, Galium aparine); experiment: as above; conditions: for Galium plant response rating (0 to 100 scale): Postemergence, 16 g ai/ha, greenhouse 10 days, 0 no effect, 100 complete control
Summary of the method: as §1

[16] = system: green foxtail (Setaria viridis); experiment: as above; conditions: for Foxtail, Green plant response rating (0 to 100 scale): Postemergence, 16 g ai/ha, greenhouse 10 days, 0 no effect, 100 complete control
Summary of the method: as §1

[17] = system: horseweed (Erigeron canadensis); experiment: as above; conditions: for Horseweed plant response rating (0 to 100 scale): Postemergence, 16 g ai/ha, greenhouse 10 days, 0 no effect, 100 complete control
Summary of the method: as §1

kochia (Bassia scoparia) [18] = experiment: as above; conditions: for Kochia plant response rating (0 to 100 scale): Postemergence, 16 g ai/ha, greenhouse 10 days, 0 no effect, 100 complete control
Summary of the method: as §1

[19] = system: oat, wild (wild oat, Avena fatua); experiment: as above; conditions: for Oat, Wild plant response rating (0 to 100 scale): Postemergence, 16 g ai/ha, greenhouse 10 days, 0 no effect, 100 complete control
Summary of the method: as §1

[20] = system: palmer (palmer amaranth, palmer pigweed, Amaranthus palmeri); experiment: as above; conditions: for Pigweed, Palmer plant response rating (0 to 100 scale): Postemergence, 16 g ai/ha, greenhouse 10 days, 0 no effect, 100 complete control
Summary of the method: as §1

[21] = system: ragweed (common ragweed, Ambrosia artemisiifolia); experiment: as above; conditions: for Ragweed plant response rating (0 to 100 scale): Postemergence, 16 g ai/ha, greenhouse 10 days, 0 no effect, 100 complete control
Summary of the method: as §1

[22] = system: ryegrass, Italian (italian ryegrass, Lolium multiflorum); experiment: as above; conditions: for Ryegrass, Italian plant response rating (0 to 100 scale): Postemergence, 16 g ai/ha, greenhouse 10 days, 0 no effect, 100 complete control
Summary of the method: as §1

soybean (Glycine max) [23] = experiment: as above; conditions: for Soybean plant response rating (0 to 100 scale): Postemergence, 16 g ai/ha, greenhouse 10 days, 0 no effect, 100 complete control
Summary of the method: as §1

[24] = system: wheat (Triticum aestivum); experiment: as above; conditions: for Wheat plant response rating (0 to 100 scale): Postemergence, 16 g ai/ha, greenhouse 10 days, 0 no effect, 100 complete control
Summary of the method: as §1

[25] = system: barnyardgrass (Echinochloa crusgalli); experiment: Test B flooded paddy test, visual plant response rating 0-100; conditions: 250 g ai/ha, Flood, applied to paddy water, evaluated after 13 days
Summary of the method: (§2)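 Each species was raised to two leaves before flooding to a 3 cm depth and dosing the water with compound. Injury was assessed by eye after 13 days under greenhouse conditions.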

[26] = system: ducksalad (Heteranthera limosa); experiment: as above; conditions: 250 g ai/ha, Flood, applied to paddy water, evaluated after 13 days
Summary of the method: as §2

rice (Oryza sativa) = experiment: as above; conditions: 250 g ai/ha, Flood, applied to paddy water, evaluated after 13 days
Summary of the method: as §2

[27] = system: sedge, umbrella (small-flower umbrella sedge, Cyperus difformis); experiment: as above; conditions: 250 g ai/ha, Flood, applied to paddy water, evaluated after 13 days
Summary of the method: as §2

[28] = 62 g ai/ha, 0 = no effect, 100 = complete control
[29] = 62 g ai/ha, postemergence, 10 days, 0 = no effect, 100 = complete control

In the case of CC1(C(=O)NC2C=CC(C(=O)O)C2)CN(c2cc(F)c(F)c(F)c2)C(=O)O1 (centres unmarked) [Compound 123], the “Barnyardgrass plant response rating” value [1] is reported as 0, the “Blackgrass plant response rating” value [2] is reported as 0 and the “Corn plant response rating” value (corn (Zea mays) [3]) is reported as 0. The “Foxtail, Green plant response rating” value [4] was 0, the “Kochia plant response rating” value (kochia (Bassia scoparia) [5]) was 0 and the “Oat, Wild plant response rating” value [6] was 10. For the same compound, the “Pigweed, Palmer plant response rating” value [7] was 0, the “Ragweed plant response rating” value [8] was 0 and the “Ryegrass, Italian plant response rating” value [9] was 0. The “Soybean plant response rating” value (soybean (Glycine max) [10]) was 0, the “Wheat plant response rating” value [11] was 80 and the “Barnyardgrass plant response rating (0 to 100 scale)” value [12] was 60. The “Blackgrass plant response rating (0 to 100 scale)” value [13] was 90, the “Corn plant response rating (0 to 100 scale)” value (corn (Zea mays) [14]) was 70 and the “Galium plant response rating (0 to 100 scale)” value [15] was 30. The “Foxtail, Green plant response rating (0 to 100 scale)” value [16] was 30, the “Horseweed plant response rating (0 to 100 scale)” value [17] was 0 and the “Kochia plant response rating (0 to 100 scale)” value (kochia (Bassia scoparia) [18]) was 0. For the same compound, the “Oat, Wild plant response rating (0 to 100 scale)” value [19] was 60, the “Pigweed, Palmer plant response rating (0 to 100 scale)” value [20] was 20 and the “Ragweed plant response rating (0 to 100 scale)” value [21] was 0. The “Ryegrass, Italian plant response rating (0 to 100 scale)” value [22] was 60, the “Soybean plant response rating (0 to 100 scale)” value (soybean (Glycine max) [23]) was 60 and the “Wheat plant response rating (0 to 100 scale)” value [24] was 80. For the same compound, the “Plant response rating, Barnyardgrass (0 to 100 scale, 0 is no effect and 100 is complete control)” value [25] was 0, the “Plant response rating, Ducksalad (0 to 100 scale, 0 is no effect and 100 is complete control)” value [26] was 55 and the “Plant response rating, Rice (0 to 100 scale, 0 is no effect and 100 is complete control)” value (rice (Oryza sativa)) was 10. The “Plant response rating, Sedge, Umbrella (0 to 100 scale, 0 is no effect and 100 is complete control)” value [27] was 0.
For CC1(C(=O)NC2CC=C(C(=O)NS(C)(=O)=O)C2)CN(c2cc(F)cc(F)c2)C(=O)O1 (racemic) [Compound 103], the “Barnyardgrass plant response rating” value [1] was 0, the “Barnyardgrass plant response rating (0-100)” value [1, 28] was 10 and the “Blackgrass plant response rating” value [2] was 0. For the same compound, the “Blackgrass plant response rating (0-100)” value [2, 28] was 0, the “Corn plant response rating” value (corn (Zea mays) [3]) was 0 and the “Corn plant response rating (0-100)” value (corn (Zea mays) [3]; [28]) was 10. For the same compound, the “Foxtail, Green plant response rating” value [4] was 20, the “Foxtail, Green plant response rating (0-100)” value [4, 28] was 40 and the “Kochia plant response rating” value (kochia (Bassia scoparia) [5]) was 0. For the same compound, the “Kochia plant response rating (0-100)” value (kochia (Bassia scoparia) [5]; [28]) was 50, the “Oat, Wild plant response rating” value [6] was 0 and the “Oat, Wild plant response rating (0-100)” value [6, 28] was 0. For the same compound, the “Pigweed, Palmer plant response rating” value [7] was 0, the “Pigweed, Palmer plant response rating (0-100)” value [7, 28] was 80 and the “Ragweed plant response rating” value [8] was 0. For the same compound, the “Ragweed plant response rating (0-100)” value [8, 28] was 0, the “Ryegrass, Italian plant response rating” value [9] was 0 and the “Ryegrass, Italian plant response rating (0-100)” value [9, 28] was 40. The “Soybean plant response rating” value (soybean (Glycine max) [10]) was 20, the “Soybean plant response rating (0-100)” value (soybean (Glycine max) [10]; [28]) was 20 and the “Wheat plant response rating” value [11] was 0. The “Wheat plant response rating (0-100)” value [11, 28] was 60, the “Barnyardgrass plant response rating (0-100)” value [12, 29] was 100 and the “Barnyardgrass plant response rating (0 to 100 scale)” value [12] was 50. For the same compound, the “Blackgrass plant response rating (0-100)” value [13, 29] was 40, the “Blackgrass plant response rating (0 to 100 scale)” value [13] was 0 and the “Corn plant response rating (0-100)” value (corn (Zea mays) [14]; [29]) was 80. For the same compound, the “Corn plant response rating (0 to 100 scale)” value (corn (Zea mays) [14]) was 10, the “Galium plant response rating (0-100)” value [15, 29] was 60 and the “Galium plant response rating (0 to 100 scale)” value [15] was 10. For the same compound, the “Foxtail, Green plant response rating (0-100)” value [16, 29] was 90, the “Foxtail, Green plant response rating (0 to 100 scale)” value [16] was 0 and the “Horseweed plant response rating (0-100)” value [17, 29] was 0. For the same compound, the “Horseweed plant response rating (0 to 100 scale)” value [17] was 0, the “Kochia plant response rating (0-100)” value (kochia (Bassia scoparia) [18]; [29]) was 80 and the “Kochia plant response rating (0 to 100 scale)” value (kochia (Bassia scoparia) [18]) was 20. The “Oat, Wild plant response rating (0-100)” value [19, 29] was 20, the “Oat, Wild plant response rating (0 to 100 scale)” value [19] was 0 and the “Pigweed, Palmer plant response rating (0-100)” value [20, 29] was 70. The “Pigweed, Palmer plant response rating (0 to 100 scale)” value [20] was 60, the “Ragweed plant response rating (0-100)” value [21, 29] was 30 and the “Ragweed plant response rating (0 to 100 scale)” value [21] was 10. For the same compound, the “Ryegrass, Italian plant response rating (0-100)” value [22, 29] was 30, the “Ryegrass, Italian plant response rating (0 to 100 scale)” value [22] was 0 and the “Soybean plant response rating (0-100)” value (soybean (Glycine max) [23]; [29]) was 40. The “Soybean plant response rating (0 to 100 scale)” value (soybean (Glycine max) [23]) was 10, the “Wheat plant response rating (0-100)” value [24, 29] was 70 and the “Wheat plant response rating (0 to 100 scale)” value [24] was 20. For the same compound, the “Plant response rating, Barnyardgrass (0 to 100 scale, 0 is no effect and 100 is complete control)” value [25] was 0, the “Plant response rating, Ducksalad (0 to 100 scale, 0 is no effect and 100 is complete control)” value [26] was 0 and the “Plant response rating, Rice (0 to 100 scale, 0 is no effect and 100 is complete control)” value (rice (Oryza sativa)) was 0. The “Plant response rating, Sedge, Umbrella (0 to 100 scale, 0 is no effect and 100 is complete control)” value [27] was 0.
